Literature values in US20170007537A1, “PHARMACEUTICAL COMPOSITIONS OF ASENAPINE” (HETERO RESEARCH FOUNDATION, priority 2014, published 2017).

Conditions: when swallowed; oral tablet formulation

absolute bioavailability: < 2%
SMILES: CN1C[C@H]2c3ccccc3Oc3ccc(Cl)cc3[C@@H]2C1.O=C(O)/C=C\C(=O)O (racemic) [asenapine, (3aRS,12bRS)-5-Chloro-2-methyl-2,3,3a,12b-tetrahydro-1Hdibenzo[2,3:6,7]oxepino[4,5-c]pyrrole(2Z)-2-butenedioate (1:1)]
